Assay results taken from patent publication US6989389B2, “Aryl ether substituted imidazoquinolines” (3M Innovative Properties Co., priority 2000, dated 2006).
Structures can show the parent of a compound that is named as a salt. Where two headings read alike, the source gives them in different places.

System: Peripheral blood mononuclear cells (PBMC)
Test: Cytokine Induction in Human Cells (in vitro human blood cell system, IFN and TNF secreted into culture media)
Format: cell-based
Parameters: key to Lowest Effective Concentration (μM) Tumor Necrosis Factor / Lowest Effective Concentration (μM) Interferon: *: no induction was seen at any of the tested concentrations
Conditions: 18 to 24 hours, tested 30-0.014 μM
Text: An in vitro human blood cell system is used to assess cytokine induction. Activity is based on the measurement of interferon and tumor necrosis factor (α) (IFN and TNF, respectively) secreted into culture media as described by Testerman et. al. In “Cytokine Induction by the Immunomodulators Imiquimod and S-27609”, Journal of Leukocyte Biology, 58, 365-372 (September, 1995).
Whole blood from healthy human donors is collected by venipuncture into EDTA vacutainer tubes. Peripheral blood mononuclear cells (PBMC) are separated from whole blood by density gradient centrifugation using Histopaque®-1077. Blood is diluted 1:1 with Dulbecco's Phosphate Buffered Saline (DPBS) or Hank's Balanced Salts Solution (HBSS). The PBMC layer is collected and washed twice with DPBS or HBSS and resuspended at 4×10^6 cells/mL in RPMI complete. The PBMC suspension is added to 48 well flat bottom sterile tissue culture plates (Costar, Cambridge, Mass. or Becton Dickinson Labware, Lincoln Park, N.J.) containing an equal volume of RPMI complete media containing test compound.
The compounds are solubilized in dimethyl sulfoxide (DMSO). The DMSO concentration should not exceed a final concentration of 1% for addition to the culture wells. The compounds are generally tested at concentrations ranging from 30-0.014 μM.
The solution of test compound is added at 60 μM to the first well containing RPMI complete and serial 3 fold dilutions are made in the wells. The PBMC suspension is then added to the wells in an equal volume, bringing the test compound concentrations to the desired range (30-0.014 μM). The final concentration of PBMC suspension is 2×10^6 cells/mL. The plates are covered with sterile plastic lids, mixed gently and then incubated for 18 to 24 hours at 37° C. in a 5% carbon dioxide atmosphere.
Following incubation the plates are centrifuged for 10 minutes at 1000 rpm (˜200×g) at 4° C. The cell-free culture supernatant is removed with a sterile polypropylene pipet and transferred to sterile polypropylene tubes. Samples are maintained at −30 to −70° C. until analysis. The samples are analyzed for interferon (α) by ELISA and for tumor necrosis factor (α) by ELISA or IGEN Assay.
Interferon (α) concentration is determined by ELISA using a Human Multi-Species kit from PBL Biomedical Laboratories, New Brunswick, N.J. Results are expressed in pg/mL.
Tumor necrosis factor (α) (TNF) concentration is determined using ELISA kits available from Biosource International, Camarillo, Calif. Alternately, the TNF concentration can be determined by Origen® M-Series Immunoassay and read on an IGEN M-8 analyzer from IGEN International, Gaithersburg, Md. The immunoassay uses a human TNF capture and detection antibody pair from Biosource International, Camarillo, Calif. Results are expressed in pg/mL.
The table below lists the lowest concentration found to induce interferon and the lowest concentration found to induce tumor necrosis factor for each compound.

[1] = Homo sapiens, PBMC, lowest concentration found to induce interferon (α), ELISA, read-out: Lowest Effective Concentration (μM) Interferon
[2] = Homo sapiens, PBMC, lowest concentration found to induce tumor necrosis factor (α), ELISA or IGEN assay, read-out: Lowest Effective Concentration (μM) Tumor Necrosis Factor
[3] = lowest concentration found to induce tumor necrosis factor (α), ELISA or IGEN assay
[4] = lowest concentration found to induce interferon (α), ELISA

## CC[C@@H](COCc1ccc(C#N)cc1)n1cnc2c(N)nc3ccccc3c21 [Example 143, 4-({[(2S)-2-(4-Amino-1H-imidazo[4,5-c]quinolin-1-yl)butyl]oxy}methyl)benzonitrile]
[1]
  minimal effective concentration: 1.11 µM
[2]
  minimal effective concentration: 3.33 µM

## CN(C)c1ccc(CCCOCCn2cnc3c(N)nc4ccccc4c32)cc1 [Example 114, 1-(2-{3-[4-(Dimethylamino)phenyl]propoxy}ethyl)-1H-imidazo[4,5-c]quinolin-4-amine]
[1]
  minimal effective concentration: 0.12 µM
[2]
  minimal effective concentration: 0.37 µM

## CC(Cn1cnc2c(N)nc3ccccc3c21)Oc1ccccc1C#N (stereo not shown) [Example 97]
[1]
  minimal effective concentration: 1.11 µM
[3]
  Lowest Effective Concentration (μM) Tumor Necrosis Factor: *

## CC(COCc1ccccc1)n1cnc2c(N)nc3ccccc3c21 (stereo not shown) [Example 70]
[1]
  minimal effective concentration: 0.37 µM
[3]
  Lowest Effective Concentration (μM) Tumor Necrosis Factor: *

## Nc1ccccc1CCCOCCn1cnc2c(N)nc3ccccc3c21 [Example 18, 1-{2-[3-(2-Aminophenyl)propoxy]ethyl}-1H-imidazo[4,5-c]quinolin-4-amine trifluoroacetate]
[1]
  minimal effective concentration: 0.12 µM
[2]
  minimal effective concentration: 1.11 µM

## Cc1ccc(COC(Cn2cnc3c(N)nc4ccccc4c32)c2ccccc2)cc1 (stereo not shown) [Example 31]
[4]
  Lowest Effective Concentration (μM) Interferon: *
[3]
  Lowest Effective Concentration (μM) Tumor Necrosis Factor: *

## Nc1nc2ccccc2c2c1ncn2CCOCCCc1ccccc1 [Example 22, 1-[2-(3-Phenylpropoxy)ethyl]-1H-imidazo[4,5-c]quinolin-4-amine]
[1]
  minimal effective concentration: 0.12 µM
[2]
  minimal effective concentration: 0.37 µM

## CCC(COCc1ccc(C#N)cc1)n1cnc2c(N)nc3ccccc3c21 (stereo not shown) [Example 46]
Lowest concentration found to induce interferon (α), ELISA, read-out: Lowest Effective Concentration (μM) Interferon
  minimal effective concentration: 0.01 µM
Lowest concentration found to induce tumor necrosis factor (α), ELISA or IGEN assay, read-out: Lowest Effective Concentration (μM) Tumor Necrosis Factor
  minimal effective concentration: 3.33 µM

## CC(Cn1cnc2c(N)nc3ccccc3c21)OCc1ccc(Cl)c(Cl)c1 (stereo not shown) [Example 53]
[1]
  minimal effective concentration: 1.11 µM
[3]
  Lowest Effective Concentration (μM) Tumor Necrosis Factor: *

## CCC(COc1ccccc1)n1cnc2c(N)nc3ccccc3c21 (stereo not shown) [Example 106, 1-[(1-Phenoxymethyl)propyl]-1H-imidazo[4,5-c]quinolin-4-amine]
[1]
  minimal effective concentration: 0.37 µM
[3]
  Lowest Effective Concentration (μM) Tumor Necrosis Factor: *

## CC(Cn1cnc2c(N)nc3ccccc3c21)OCc1ccc(C(F)(F)F)cc1 (stereo not shown) [Example 68]
[1]
  minimal effective concentration: 3.33 µM
[3]
  Lowest Effective Concentration (μM) Tumor Necrosis Factor: *

## CCC(COCc1ccccc1)n1cnc2c(N)nc3ccccc3c21 (stereo not shown) [Example 24]
[1]
  minimal effective concentration: 0.12 µM
[3]
  Lowest Effective Concentration (μM) Tumor Necrosis Factor: *

## CC(C)C(COCc1ccc(Cl)c(Cl)c1)n1cnc2c(N)nc3ccccc3c21 (stereo not shown) [Example 62]
[2]
  minimal effective concentration: 3.33 µM
[4]
  Lowest Effective Concentration (μM) Interferon: *

## CC(C)(Cn1cnc2c(N)nc3ccccc3c21)OCc1ccccc1C#N [Example 39]
[1]
  minimal effective concentration: 1.11 µM
[3]
  Lowest Effective Concentration (μM) Tumor Necrosis Factor: *

## CC(C)C(COCc1cccc(C(F)(F)F)c1)n1cnc2c(N)nc3ccccc3c21 (stereo not shown) [Example 63]
[4]
  Lowest Effective Concentration (μM) Interferon: *
[3]
  Lowest Effective Concentration (μM) Tumor Necrosis Factor: *

## CCCCc1nc2c(N)nc3c(c2n1CCOCc1cccc(C(F)(F)F)c1)CCCC3 [Example 92]
[1]
  minimal effective concentration: 3.33 µM
[2]
  minimal effective concentration: 3.33 µM

## CCCCc1nc2c(N)nc3c(c2n1CCOCc1ccc(C)cc1)CCCC3 [Example 90]
[1]
  minimal effective concentration: 0.12 µM
[2]
  minimal effective concentration: 10 µM

## Cc1ccc(COCCOCn2cnc3c(N)nc4ccccc4c32)cc1 [Example 85]
[1]
  minimal effective concentration: 0.37 µM
[3]
  Lowest Effective Concentration (μM) Tumor Necrosis Factor: *

## CC(C)(Cn1cnc2c(N)nc3ccccc3c21)OCc1ccccc1 [Example 33]
[4]
  Lowest Effective Concentration (μM) Interferon: *
[3]
  Lowest Effective Concentration (μM) Tumor Necrosis Factor: *

## C[C@@H](COCc1ccc(C(C)(C)C)cc1)Cn1cnc2c(N)nc3ccccc3c21 [Example 111]
[1]
  minimal effective concentration: 3.33 µM
[3]
  Lowest Effective Concentration (μM) Tumor Necrosis Factor: *

## Nc1nc2ccccc2c2c1ncn2CCOCCCc1ccc(-n2cccc2)cc1 [Example 11, 1-(2-{3-[4-(1H-1-Pyrrolyl)phenyl]propoxy}ethyl)-1H-imidazo[4,5-c]quinolin-4-amine trifluoroacetate]
[1]
  minimal effective concentration: 1.11 µM
[3]
  Lowest Effective Concentration (μM) Tumor Necrosis Factor: *

## CCC(COCc1cccc(OC(F)(F)F)c1)n1cnc2c(N)nc3ccccc3c21 (stereo not shown) [Example 45]
[1]
  minimal effective concentration: 0.37 µM
[3]
  Lowest Effective Concentration (μM) Tumor Necrosis Factor: *

## Nc1nc2ccccc2c2c1ncn2COCCOc1ccc([N+](=O)[O-])cc1 [Example 83]
[1]
  minimal effective concentration: 0.37 µM
[3]
  Lowest Effective Concentration (μM) Tumor Necrosis Factor: *

## Nc1nc2ccccc2c2c1ncn2CC(OCCCCOc1ccccc1)c1ccccc1 (stereo not shown) [Example 79]
[4]
  Lowest Effective Concentration (μM) Interferon: *
[3]
  Lowest Effective Concentration (μM) Tumor Necrosis Factor: *

## COC(=O)c1ccc(COCC(C)n2cnc3c(N)nc4ccccc4c32)cc1 (stereo not shown) [Example 71]
[1]
  minimal effective concentration: 3.33 µM
[3]
  Lowest Effective Concentration (μM) Tumor Necrosis Factor: *

## N#Cc1ccc(COCCOCn2cnc3c(N)nc4ccccc4c32)cc1 [Example 87]
[1]
  minimal effective concentration: 1.11 µM
[3]
  Lowest Effective Concentration (μM) Tumor Necrosis Factor: *

## Nc1nc2ccccc2c2c1ncn2CCOc1ccccc1 [Example 105, 1-(2-Phenoxyethyl)-1H-imidazo[4,5-c]quinolin-4-amine]
[1]
  minimal effective concentration: 0.37 µM
[2]
  minimal effective concentration: 1.11 µM

## CCC(COc1ccc(C(C)(C)CC(C)(C)C)cc1)n1cnc2c(N)nc3ccccc3c21 (stereo not shown) [Example 103]
[2]
  minimal effective concentration: 10 µM
[4]
  Lowest Effective Concentration (μM) Interferon: *

## CC(C)(Cn1cnc2c(N)nc3ccccc3c21)OCc1cccc(Cl)c1 [Example 35]
[4]
  Lowest Effective Concentration (μM) Interferon: *
[3]
  Lowest Effective Concentration (μM) Tumor Necrosis Factor: *

## Cc1ccc([N+](=O)[O-])c(OCC(C(C)C)n2cnc3c(N)nc4ccccc4c32)c1 (stereo not shown) [Example 55]
[4]
  Lowest Effective Concentration (μM) Interferon: *
[3]
  Lowest Effective Concentration (μM) Tumor Necrosis Factor: *

## CCC(COCc1cccc(C)c1)n1cnc2c(N)nc3ccccc3c21 (stereo not shown) [Example 25]
[1]
  minimal effective concentration: 0.12 µM
[3]
  Lowest Effective Concentration (μM) Tumor Necrosis Factor: *

## Nc1nc2ccccc2c2c1ncn2CCOCc1ccccc1 [Example 42]
[1]
  minimal effective concentration: 0.37 µM
[3]
  Lowest Effective Concentration (μM) Tumor Necrosis Factor: *

## Cc1ccc(COCCCCn2cnc3c(N)nc4ccccc4c32)cc1 [Example 77]
[1]
  minimal effective concentration: 0.12 µM
[3]
  Lowest Effective Concentration (μM) Tumor Necrosis Factor: *

## Cc1cccc(COC(C)(C)Cn2cnc3c(N)nc4ccccc4c32)c1 [Example 37]
[4]
  Lowest Effective Concentration (μM) Interferon: *
[3]
  Lowest Effective Concentration (μM) Tumor Necrosis Factor: *

## CC(C)C(COCc1ccc(Cl)cc1)n1cnc2c(N)nc3ccccc3c21 (stereo not shown) [Example 60]
[1]
  minimal effective concentration: 1.11 µM
[3]
  Lowest Effective Concentration (μM) Tumor Necrosis Factor: *

## CCOCc1nc2c(N)nc3ccccc3c2n1CCOCCCc1ccccc1 [Example 16, 2-(Ethoxymethyl)-1-[2-(3-phenylpropoxy)ethyl]-1H-imidazo[4,5-c]quinolin-4-amine Hydrochloride]
[1]
  minimal effective concentration: 0.01 µM
[2]
  minimal effective concentration: 0.37 µM

## C[C@@H](COCc1cccc(Cl)c1)Cn1cnc2c(N)nc3ccccc3c21 [Example 112]
[4]
  Lowest Effective Concentration (μM) Interferon: *
[3]
  Lowest Effective Concentration (μM) Tumor Necrosis Factor: *

## CCCCc1nc2c(N)nc3c(c2n1CCOCc1cccc(Cl)c1)CCCC3 [Example 89]
[1]
  minimal effective concentration: 0.37 µM
[2]
  minimal effective concentration: 10 µM
